Data on 1 cell line can be found in the supplement of paper PMC10307832.

Test in all cases: relative viability (nuclei count vs DMSO), 5 days (fraction); higher = more cells survive
Compound in the assay “Alpelisib + Linsitinib”: Cc1nc(NC(=O)N2CCC[C@H]2C(N)=O)sc1-c1ccnc(C(C)(C)C(F)(F)F)c1 [Alpelisib] + C[C@]1(O)C[C@@H](c2nc(-c3ccc4ccc(-c5ccccc5)nc4c3)c3c(N)nccn32)C1 [Linsitinib] (partner 1 µM)
Summed up:
(§1)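 Relative viability is defined as nuclei in treated wells over nuclei in vehicle wells. Duplicate plates were run and medians reported. Lung cancer cell lines in 1536-well plates were dosed by pin tool one day after seeding, with one drug or with a fixed anchor-drug dose plus five library-drug doses (not always all listed) in √10 steps, and nuclei were counted after 5 days.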

Compound in the assay “Vemurafenib + Linsitinib”: CCCS(=O)(=O)Nc1ccc(F)c(C(=O)c2c[nH]c3ncc(-c4ccc(Cl)cc4)cc23)c1F [Vemurafenib] + C[C@]1(O)C[C@@H](c2nc(-c3ccc4ccc(-c5ccccc5)nc4c3)c3c(N)nccn32)C1 [Linsitinib] (partner 1 µM)
Put shortly:
as §1

Compound in the assay “OSI-027 + Alpelisib”: COc1cccc2cc(-c3nc([C@H]4CC[C@H](C(=O)O)CC4)n4ncnc(N)c34)[nH]c12 [OSI-027] + Cc1nc(NC(=O)N2CCC[C@H]2C(N)=O)sc1-c1ccnc(C(C)(C)C(F)(F)F)c1 [Alpelisib] (partner 2 µM)
Put shortly: as §1

Compound in the assay “Alpelisib + Crizotinib”: Cc1nc(NC(=O)N2CCC[C@H]2C(N)=O)sc1-c1ccnc(C(C)(C)C(F)(F)F)c1 [Alpelisib] + C[C@@H](Oc1cc(-c2cnn(C3CCNCC3)c2)cnc1N)c1c(Cl)ccc(F)c1Cl [Crizotinib] (partner 1 µM)
Summed up: as §1

For the cell line UMC-11, the relative viability was 0.953 with Alpelisib + Linsitinib (first compound 0.04 µM); 1.03 in the assay with Alpelisib + Linsitinib (first compound 0.1265 µM); 1.09 with Alpelisib + Linsitinib (first compound 0.4 µM); 0.995 with Alpelisib + Linsitinib (first compound 1.265 µM); 0.955 in the assay with Alpelisib + Linsitinib (first compound 4 µM); 0.945 with Vemurafenib + Linsitinib (first compound 0.03162 µM). Further, the relative viability in the assay with Vemurafenib + Linsitinib (first compound 0.1 µM) turned out to be 0.989; in the assay with Vemurafenib + Linsitinib (first compound 0.3162 µM), 1.06; in the assay with Vemurafenib + Linsitinib (first compound 1 µM), 0.949; with OSI-027 + Alpelisib (first compound 0.01 µM), 1.09; with OSI-027 + Alpelisib (first compound 0.03162 µM) it was 0.818; in the assay with OSI-027 + Alpelisib (first compound 0.1 µM), 0.881. Further, the relative viability stood at 0.597 in the assay with OSI-027 + Alpelisib (first compound 0.3162 µM); 0.49 in the assay with OSI-027 + Alpelisib (first compound 1 µM); 0.589 in the assay with Alpelisib + Crizotinib (first compound 0.04 µM); 0.516 in the assay with Alpelisib + Crizotinib (first compound 0.1265 µM); 0.724 with Alpelisib + Crizotinib (first compound 0.4 µM); 0.688 with Alpelisib + Crizotinib (first compound 1.265 µM). The relative viability in the assay with Alpelisib + Crizotinib (first compound 4 µM) worked out at 0.536.
